Experimental data as given in patent US4431807A, “4-Methyl-5-(unsubstituted and substituted phenoxy)-6-methoxy-8-(aminoalkylamino)quinolines” (priority 1981, dated 1984).
Where two headings read alike, the source gives them in different places.

Experiments:
Plasmodium cynomolgi [1] = experiment: Radical curative (tissue schizonticidal) test, SEATO, P. cynomolgi, rhesus monkey; type: in vivo, Plasmodium cynomolgi (strain B) in Indian rhesus monkeys
Method: Radical Curative Test in Rhesus Monkeys, SEATO Medical Research Laboratory, Bangkok, John Brown/Richard Andre
This test is designed to evaluate the tissue schizonticidal (radical curative) activity of test compounds. Well-conditioned Indian rhesus monkeys of either sex weighing 2-4 Kg are utilized. Plasmodium cynomolgi (strain B) sporozoites are prepared by grinding heavily infected Anopheles dirus salivary glands in 1:1 monkey serum-saline vehicle.
Monkeys are infected by I.V. injection of 10^6 freshly isolated P. cynomolgi sporozoites on day 0. A rapidly rising parasitemia develops after a 7-9 day prepatent period, and administration of the test drug is initiated when the rising parasite count exceeds 5000 per mm^3 (typically day 10-12). Test drugs are administered orally (by nasogastric intubation) once daily for 7 consecutive days in aqueous solution or, if insoluble, in suspension in 0.3% methylcellulose solution. Chloroquine diphosphate (3.1 mg/kg base/kg orally per day) is always administered concurrently with the test drug for 7 days to eliminate blood schizonts. Thus any tissue schizonticidal activity of the test drug will always be apparent even if it lacks blood schizonticidal activity.
A vehicle control monkey and a positive drug control (primaquine) monkey are included in each group of inoculated monkeys.
The effect of the test drug is determined by counting blood parasites. Parasite counts are made daily through day 20, and every two days thereafter. Initially a clearance of blood parasites is observed due to the blood schizonticidal action of chloroquine. […] If there is no relapse within 20 days of the initial clearance of parasitemia, the monkey is splenectomized and its parasitemia followed for an additional 30 days. If there is no relapse within this period, the experiment is terminated and the monkey is considered "cured".
Primaquine diphosphate cures over 90% of monkeys in this test system when administered at a dose of 1.3 mg/kg of salt per day for 7 days ([…]) in combination with chloroquine.
(§1) The antimalarial activity data acquired by the two test procedures described above are listed in Tables 2 and 3 for the compounds of this invention. In Table 4, the most promising compound of the series, compound 1, is compared directly with primaquine together with some additional test data for compound 1 compared to primaquine. In all the work reported herein primaquine is used in the form of the diphosphate salt. The test data are expressed in the form of the number of cures at a given dose level. Extension of life (mean survival time) relative to the controls is noted in the Rane mouse test; if the mean survival time is extended seven or more days, the compound is considered to be active.
The Molar Primaquine Index is useful in the radical curative test (Table II) as a gauge of the efficacy of a candidate drug relative to primaquine.

in vivo [2] = conditions: rat, po, Acute Oral LD50, rats
in vivo [3] = conditions: mouse, po
[4] = Acute oral toxicity, mice
Plasmodium berghei = conditions: cited from earlier work
Plasmodium cynomolgi [5] = conditions: cited from earlier work
[6] = system: Plasmodium vivax, P. malariae and P. ovale malaria; conditions: cited from earlier work
[7] = Blood schizonticidal (suppressive) test, Rane mouse test, P. berghei; type: in vivo, Plasmodium berghei KBG 173 in ICR/HA Swiss mice; conditions: mouse, in vivo, sc
From the text: Blood Schizonticidal Test (Mouse), University of Miami, Rane (Suppressive)
This system is based on comparisons of responses to test compounds by Plasmodium berghei KBG 173 malaria in mice as expressed in mean survival times and the mean survival times of untreated controls. Thus, compounds noted as active produce increases in the survival times of the treated animals that are significant when compared with the survival times of untreated controls. Since an established disease is less sensitive to treatment than a disease in the early stages of development, treatment is withheld until the parasitemia is relatively high in order to insure a more reliable assay of activity and the selection of appropriate compounds for intensive preclinical studies.
Utilizing young ICR/HA Swiss mice and a standard inoculum of Plasmodium berghei KBG 173, it is possible to produce a uniform disease fatal to 100% of untreated animals within 6 to 8 days with a mean survival time of 6.2 days. Test animals weigh from 18 to 22 grams but weight variations in any given experimental or control group are confined to 2-3 grams. All animals in any given test are approximately of the same age. Animals on test are housed in metal-topped plastic cages, given a standard laboratory diet and water ad libitum.
Test animals receive an intraperitoneal injection of 0.5 ml of 1:100 dilution of heparinized heart's blood with a minimum of 90% parasitized cells (4×10^7 cells), drawn from donor mice infected one week earlier with Plasmodium berghei. The donor stran is maintained by weekly passages in separate groups of mice inoculated with a 0.5 ml of 1:500 dilution of heparinized heart's blood.
Test compounds are administered after dissolution or suspension in peanut oil. A single dose is given subcutaneously 72 hours after the mice are infected with Plasmodium berghei. At this time a 10-15 percent parasitemia has developed; the disease is well established but has not produced sufficient debility to alter the response of the host to toxic effects of the drug on test. Since treatment is withheld for three days to permit the infection to become well established and death occurs in untreated controls within 6-8 days, it is believed that this system presents a candidate compound with the maximum challenge. In order to check factors such as changes in the infectivity of Plasmodium berghei or in the susceptibility of the host or to detect technical errors, a group of infected animals treated with pyrimethamine at dose levels producing definite increases in survival time is included as a positive control in every experiment.
In each experiment test compounds are administered in graded doses. […] However, if an active drug is toxic for the host, its toxicity may become a limiting factor; continued increases in dose levels also increase the toxic effects and may result in the diminution of survival times. Deaths prior to the sixth day, when untreated controls begin to die, are regarded as non-parasitic and become the basis for toxicity evaluations. Treated animals are kept under observation for 60 days. Survivors at the end of this period of time are considered as cured.
An increase of 100% in mean survival time is considered the minimum effective response for a candidate compound. In calculating mean survival time, toxic deaths and 60 day survivors are not included.
as §1, with “Extension of life (mean survival time) relative to the controls is noted in the Rane mouse test; if the mean survival time is extended seven or more days, the compound is considered to be active.” left out

COc1cc(NC(C)CCCN)c2nccc(C)c2c1Oc1cccc(C(F)(F)F)c1.O=C(O)CCC(=O)O (centres unmarked) [Compound 1, 8-(4-Amino-1-methylbutylamino)-6-methoxy-4-methyl-5-(3-trifluoromethylphenoxy)quinoline Succinate]
% curative (radical curative) (Plasmodium cynomolgi [1]; 0.316 mg/kg/day): 100%
Radical curative activity relative to primaquine (Plasmodium cynomolgi [1]; in words): markedly superior to primaquine
Molar Primaquine Index CD 100 (Plasmodium cynomolgi [1]; primaquine CD100 dose / drug CD100 dose, in moles): 4.8
LD50 (in vivo [2]; female): 577 mg/kg
LD50 (in vivo [2]; male): 259 mg/kg
LD50 (in vivo [3]): 236 mg/kg
LD50 ratio Compound 1/Primaquine ([4]; mice, male): 1.59

COc1cc(NC(C)CCCN)c2ncccc2c1 (centres unmarked) [Primaquine Diphosphate, 8-((4-amino-1-methylbutyl)amino)-6-methoxy-quinoline, reference compound]
Δ MST (Plasmodium berghei; 160 mg/kg, 5 mice, Table I): 9 days
Toxic deaths (Plasmodium berghei; 640 mg/kg, 5 mice, Table I): 5T
Suppressive activity (Plasmodium berghei; non-toxic dose levels, prior art comparison): very weak activity
Radical curative activity (Plasmodium cynomolgi [5]; 0.316 mg/kg, prior art comparison): inactive
Radical curative activity, cures (Plasmodium cynomolgi [5]; 1.0 mg/kg (× 7), Table I): 1/2
% cures (radical curative) (Plasmodium cynomolgi [5]; 1.0 mg/kg): 50%
% cures (radical curative) (Plasmodium cynomolgi [5]; 1.3 mg/kg): 100%
Radical curative (tissue) activity ([6]; clinical use): effective in clearing the tissues of parasites
Suppressive activity (blood schizonticide) ([6]; clinical use): relatively ineffective as a blood schizonticide
Toxicity in man ([6]; single curative dose): precludes administration of a single curative dose
mortality ([7]; 320 mg/kg × 1, s.c., five mice, Table III, read-out: Toxic (converted)): 40%
mortality ([7]; 640 mg/kg salt, s.c., Table IV A-1, read-out: Toxic deaths (converted)): 100%
Radical curative activity (Plasmodium cynomolgi [1]; 0.316 mg/kg/day): inactive
Radical curative test, cures (Plasmodium cynomolgi [1]; 1.0 mg/kg salt, oral, × 7 days, Table IV B-1): 1/2
Monkeys cured (Plasmodium cynomolgi [1]; 1.3 mg/kg of salt per day for 7 days (1.0 mg/kg free base) with chloroquine): over 90%
LD50 ([4]; mouse, in vivo, po): 148 mg/kg
